Source: US20230111310A1, “CARBOXYLIC ACID DERIVATIVE-SUBSTITUTED IMINO ARYL COMPOUND, PREPARATION METHOD THEREFOR, HERBICIDAL COMPOSITION AND USE THEREOF” (Qingdao Kingagroot Chemical Compound Co., Ltd., priority 2020, published 2023)

How the values were obtained:
Assay in all cases: Weeding effect in post-emergence stage
Type in all cases: in vivo
Conditions in all cases: Dose 15 g/ha; level of fresh weight growth control rate
Abutilon theophrasti = tested on: Abutilon theophrasti
In short: (§1)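 Pot-grown weeds were sprayed at the 2-3 leaf stage, 2 weeks after sowing, with compound in acetone plus Tween 80 and 1.5 liter/ha methyl oleate emulsifiable concentrate, diluted in water. Doses were 500, 250, 125, 60, 30, 15, 7.5 g/ha. Growth control was scored after 3 weeks in greenhouse; mean of three replicates.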

Eleusine indica = tested on: Eleusine indica
In short: as §1

Digitaria sanguinalis = tested on: Digitaria sanguinalis
In short: as §1

Setaria viridis = tested on: Setaria viridis
In short: as §1

Alopecurus japonicus = tested on: Alopecurus japonicus
In short: as §1

Echinochloa crusgalli = tested on: Echinochloa crusgalli
In short: as §1

CCOC(=O)C(C)O/N=C/c1cc(-n2c(=O)cc(C(F)(F)F)n(C)c2=O)c(F)cc1Cl (racemic) [Compound 196]
Weeding effect in post-emergence stage, Abutilon theophrasti (Abutilon theophrasti): 5 (Level 5: growth control rate is above 85%)
Weeding effect in post-emergence stage, Eleusine indica (Eleusine indica): 5 (Level 5: growth control rate is above 85%)
Weeding effect in post-emergence stage, Digitaria sanguinalis (Digitaria sanguinalis): 5 (Level 5: growth control rate is above 85%)
Weeding effect in post-emergence stage, Setaria viridis (Setaria viridis): 5 (Level 5: growth control rate is above 85%)
Weeding effect in post-emergence stage, Alopecurus japonicus (Alopecurus japonicus): 5 (Level 5: growth control rate is above 85%)
Weeding effect in post-emergence stage, Echinochloa crusgalli (Echinochloa crusgalli): 5 (Level 5: growth control rate is above 85%)

CCCOC(=O)C(C)O/N=C/c1cc(-n2c(=O)cc(C(F)(F)F)n(C)c2=O)c(F)cc1Cl (racemic) [Compound 198]
Weeding effect in post-emergence stage, Abutilon theophrasti (Abutilon theophrasti): 5 (Level 5: growth control rate is above 85%)
Weeding effect in post-emergence stage, Eleusine indica (Eleusine indica): 5 (Level 5: growth control rate is above 85%)
Weeding effect in post-emergence stage, Digitaria sanguinalis (Digitaria sanguinalis): 5 (Level 5: growth control rate is above 85%)
Weeding effect in post-emergence stage, Setaria viridis (Setaria viridis): 5 (Level 5: growth control rate is above 85%)
Weeding effect in post-emergence stage, Alopecurus japonicus (Alopecurus japonicus): 5 (Level 5: growth control rate is above 85%)
Weeding effect in post-emergence stage, Echinochloa crusgalli (Echinochloa crusgalli): 5 (Level 5: growth control rate is above 85%)

CC(C)OC(=O)C(C)O/N=C/c1cc(-n2c(=O)cc(C(F)(F)F)n(C)c2=O)c(F)cc1Cl (racemic) [Compound 199]
Weeding effect in post-emergence stage, Abutilon theophrasti (Abutilon theophrasti): 5 (Level 5: growth control rate is above 85%)
Weeding effect in post-emergence stage, Eleusine indica (Eleusine indica): 5 (Level 5: growth control rate is above 85%)
Weeding effect in post-emergence stage, Digitaria sanguinalis (Digitaria sanguinalis): 5 (Level 5: growth control rate is above 85%)
Weeding effect in post-emergence stage, Setaria viridis (Setaria viridis): 5 (Level 5: growth control rate is above 85%)
Weeding effect in post-emergence stage, Alopecurus japonicus (Alopecurus japonicus): 5 (Level 5: growth control rate is above 85%)
Weeding effect in post-emergence stage, Echinochloa crusgalli (Echinochloa crusgalli): 5 (Level 5: growth control rate is above 85%)

CCCCOC(=O)C(C)O/N=C/c1cc(-n2c(=O)cc(C(F)(F)F)n(C)c2=O)c(F)cc1Cl (racemic) [Compound 200]
Weeding effect in post-emergence stage, Abutilon theophrasti (Abutilon theophrasti): 5 (Level 5: growth control rate is above 85%)
Weeding effect in post-emergence stage, Eleusine indica (Eleusine indica): 5 (Level 5: growth control rate is above 85%)
Weeding effect in post-emergence stage, Digitaria sanguinalis (Digitaria sanguinalis): 5 (Level 5: growth control rate is above 85%)
Weeding effect in post-emergence stage, Setaria viridis (Setaria viridis): 5 (Level 5: growth control rate is above 85%)
Weeding effect in post-emergence stage, Alopecurus japonicus (Alopecurus japonicus): 5 (Level 5: growth control rate is above 85%)
Weeding effect in post-emergence stage, Echinochloa crusgalli (Echinochloa crusgalli): 5 (Level 5: growth control rate is above 85%)

CC(C)COC(=O)C(C)O/N=C/c1cc(-n2c(=O)cc(C(F)(F)F)n(C)c2=O)c(F)cc1Cl (racemic) [Compound 201]
Weeding effect in post-emergence stage, Abutilon theophrasti (Abutilon theophrasti): 5 (Level 5: growth control rate is above 85%)
Weeding effect in post-emergence stage, Eleusine indica (Eleusine indica): 5 (Level 5: growth control rate is above 85%)
Weeding effect in post-emergence stage, Digitaria sanguinalis (Digitaria sanguinalis): 5 (Level 5: growth control rate is above 85%)
Weeding effect in post-emergence stage, Setaria viridis (Setaria viridis): 5 (Level 5: growth control rate is above 85%)
Weeding effect in post-emergence stage, Alopecurus japonicus (Alopecurus japonicus): 5 (Level 5: growth control rate is above 85%)
Weeding effect in post-emergence stage, Echinochloa crusgalli (Echinochloa crusgalli): 5 (Level 5: growth control rate is above 85%)

CC(O/N=C/c1cc(-n2c(=O)cc(C(F)(F)F)n(C)c2=O)c(F)cc1Cl)C(=O)OC(C)(C)C (racemic) [Compound 202]
Weeding effect in post-emergence stage, Abutilon theophrasti (Abutilon theophrasti): 5 (Level 5: growth control rate is above 85%)
Weeding effect in post-emergence stage, Eleusine indica (Eleusine indica): 5 (Level 5: growth control rate is above 85%)
Weeding effect in post-emergence stage, Digitaria sanguinalis (Digitaria sanguinalis): 5 (Level 5: growth control rate is above 85%)
Weeding effect in post-emergence stage, Setaria viridis (Setaria viridis): 5 (Level 5: growth control rate is above 85%)
Weeding effect in post-emergence stage, Alopecurus japonicus (Alopecurus japonicus): 5 (Level 5: growth control rate is above 85%)
Weeding effect in post-emergence stage, Echinochloa crusgalli (Echinochloa crusgalli): 5 (Level 5: growth control rate is above 85%)

CCCCCOC(=O)C(C)O/N=C/c1cc(-n2c(=O)cc(C(F)(F)F)n(C)c2=O)c(F)cc1Cl (racemic) [Compound 203]
Weeding effect in post-emergence stage, Abutilon theophrasti (Abutilon theophrasti): 5 (Level 5: growth control rate is above 85%)
Weeding effect in post-emergence stage, Eleusine indica (Eleusine indica): 5 (Level 5: growth control rate is above 85%)
Weeding effect in post-emergence stage, Digitaria sanguinalis (Digitaria sanguinalis): 5 (Level 5: growth control rate is above 85%)
Weeding effect in post-emergence stage, Setaria viridis (Setaria viridis): 5 (Level 5: growth control rate is above 85%)
Weeding effect in post-emergence stage, Alopecurus japonicus (Alopecurus japonicus): 5 (Level 5: growth control rate is above 85%)
Weeding effect in post-emergence stage, Echinochloa crusgalli (Echinochloa crusgalli): 5 (Level 5: growth control rate is above 85%)

CCCCCCOC(=O)C(C)O/N=C/c1cc(-n2c(=O)cc(C(F)(F)F)n(C)c2=O)c(F)cc1Cl (racemic) [Compound 204]
Weeding effect in post-emergence stage, Abutilon theophrasti (Abutilon theophrasti): 5 (Level 5: growth control rate is above 85%)
Weeding effect in post-emergence stage, Eleusine indica (Eleusine indica): 5 (Level 5: growth control rate is above 85%)
Weeding effect in post-emergence stage, Digitaria sanguinalis (Digitaria sanguinalis): 5 (Level 5: growth control rate is above 85%)
Weeding effect in post-emergence stage, Setaria viridis (Setaria viridis): 5 (Level 5: growth control rate is above 85%)
Weeding effect in post-emergence stage, Alopecurus japonicus (Alopecurus japonicus): 5 (Level 5: growth control rate is above 85%)
Weeding effect in post-emergence stage, Echinochloa crusgalli (Echinochloa crusgalli): 5 (Level 5: growth control rate is above 85%)

CCCCCCCOC(=O)C(C)O/N=C/c1cc(-n2c(=O)cc(C(F)(F)F)n(C)c2=O)c(F)cc1Cl (racemic) [Compound 205]
Weeding effect in post-emergence stage, Abutilon theophrasti (Abutilon theophrasti): 5 (Level 5: growth control rate is above 85%)
Weeding effect in post-emergence stage, Eleusine indica (Eleusine indica): 5 (Level 5: growth control rate is above 85%)
Weeding effect in post-emergence stage, Digitaria sanguinalis (Digitaria sanguinalis): 5 (Level 5: growth control rate is above 85%)
Weeding effect in post-emergence stage, Setaria viridis (Setaria viridis): 5 (Level 5: growth control rate is above 85%)
Weeding effect in post-emergence stage, Alopecurus japonicus (Alopecurus japonicus): 5 (Level 5: growth control rate is above 85%)
Weeding effect in post-emergence stage, Echinochloa crusgalli (Echinochloa crusgalli): 5 (Level 5: growth control rate is above 85%)

CCCCCCCCOC(=O)C(C)O/N=C/c1cc(-n2c(=O)cc(C(F)(F)F)n(C)c2=O)c(F)cc1Cl (racemic) [Compound 206]
Weeding effect in post-emergence stage, Abutilon theophrasti (Abutilon theophrasti): 5 (Level 5: growth control rate is above 85%)
Weeding effect in post-emergence stage, Eleusine indica (Eleusine indica): 5 (Level 5: growth control rate is above 85%)
Weeding effect in post-emergence stage, Digitaria sanguinalis (Digitaria sanguinalis): 5 (Level 5: growth control rate is above 85%)
Weeding effect in post-emergence stage, Setaria viridis (Setaria viridis): 5 (Level 5: growth control rate is above 85%)
Weeding effect in post-emergence stage, Alopecurus japonicus (Alopecurus japonicus): 5 (Level 5: growth control rate is above 85%)
Weeding effect in post-emergence stage, Echinochloa crusgalli (Echinochloa crusgalli): 5 (Level 5: growth control rate is above 85%)

CCCCCCC(C)OC(=O)C(C)O/N=C/c1cc(-n2c(=O)cc(C(F)(F)F)n(C)c2=O)c(F)cc1Cl (racemic) [Compound 207]
Weeding effect in post-emergence stage, Abutilon theophrasti (Abutilon theophrasti): 5 (Level 5: growth control rate is above 85%)
Weeding effect in post-emergence stage, Eleusine indica (Eleusine indica): 5 (Level 5: growth control rate is above 85%)
Weeding effect in post-emergence stage, Digitaria sanguinalis (Digitaria sanguinalis): 5 (Level 5: growth control rate is above 85%)
Weeding effect in post-emergence stage, Setaria viridis (Setaria viridis): 5 (Level 5: growth control rate is above 85%)
Weeding effect in post-emergence stage, Alopecurus japonicus (Alopecurus japonicus): 5 (Level 5: growth control rate is above 85%)
Weeding effect in post-emergence stage, Echinochloa crusgalli (Echinochloa crusgalli): 5 (Level 5: growth control rate is above 85%)

C=CCOC(=O)C(C)O/N=C/c1cc(-n2c(=O)cc(C(F)(F)F)n(C)c2=O)c(F)cc1Cl (racemic) [Compound 208]
Weeding effect in post-emergence stage, Abutilon theophrasti (Abutilon theophrasti): 5 (Level 5: growth control rate is above 85%)
Weeding effect in post-emergence stage, Eleusine indica (Eleusine indica): 5 (Level 5: growth control rate is above 85%)
Weeding effect in post-emergence stage, Digitaria sanguinalis (Digitaria sanguinalis): 5 (Level 5: growth control rate is above 85%)
Weeding effect in post-emergence stage, Setaria viridis (Setaria viridis): 5 (Level 5: growth control rate is above 85%)
Weeding effect in post-emergence stage, Alopecurus japonicus (Alopecurus japonicus): 5 (Level 5: growth control rate is above 85%)
Weeding effect in post-emergence stage, Echinochloa crusgalli (Echinochloa crusgalli): 5 (Level 5: growth control rate is above 85%)

C=CCCOC(=O)C(C)O/N=C/c1cc(-n2c(=O)cc(C(F)(F)F)n(C)c2=O)c(F)cc1Cl (racemic) [Compound 209]
Weeding effect in post-emergence stage, Abutilon theophrasti (Abutilon theophrasti): 5 (Level 5: growth control rate is above 85%)
Weeding effect in post-emergence stage, Eleusine indica (Eleusine indica): 5 (Level 5: growth control rate is above 85%)
Weeding effect in post-emergence stage, Digitaria sanguinalis (Digitaria sanguinalis): 5 (Level 5: growth control rate is above 85%)
Weeding effect in post-emergence stage, Setaria viridis (Setaria viridis): 5 (Level 5: growth control rate is above 85%)
Weeding effect in post-emergence stage, Alopecurus japonicus (Alopecurus japonicus): 5 (Level 5: growth control rate is above 85%)
Weeding effect in post-emergence stage, Echinochloa crusgalli (Echinochloa crusgalli): 5 (Level 5: growth control rate is above 85%)

C#CCOC(=O)C(C)O/N=C/c1cc(-n2c(=O)cc(C(F)(F)F)n(C)c2=O)c(F)cc1Cl (racemic) [Compound 212]
Weeding effect in post-emergence stage, Abutilon theophrasti (Abutilon theophrasti): 5 (Level 5: growth control rate is above 85%)
Weeding effect in post-emergence stage, Eleusine indica (Eleusine indica): 5 (Level 5: growth control rate is above 85%)
Weeding effect in post-emergence stage, Digitaria sanguinalis (Digitaria sanguinalis): 5 (Level 5: growth control rate is above 85%)
Weeding effect in post-emergence stage, Setaria viridis (Setaria viridis): 5 (Level 5: growth control rate is above 85%)
Weeding effect in post-emergence stage, Alopecurus japonicus (Alopecurus japonicus): 5 (Level 5: growth control rate is above 85%)
Weeding effect in post-emergence stage, Echinochloa crusgalli (Echinochloa crusgalli): 5 (Level 5: growth control rate is above 85%)

CC(O/N=C/c1cc(-n2c(=O)cc(C(F)(F)F)n(C)c2=O)c(F)cc1Cl)C(=O)OC1CCCC1 (racemic) [Compound 214]
Weeding effect in post-emergence stage, Abutilon theophrasti (Abutilon theophrasti): 5 (Level 5: growth control rate is above 85%)
Weeding effect in post-emergence stage, Eleusine indica (Eleusine indica): 5 (Level 5: growth control rate is above 85%)
Weeding effect in post-emergence stage, Digitaria sanguinalis (Digitaria sanguinalis): 5 (Level 5: growth control rate is above 85%)
Weeding effect in post-emergence stage, Setaria viridis (Setaria viridis): 5 (Level 5: growth control rate is above 85%)
Weeding effect in post-emergence stage, Alopecurus japonicus (Alopecurus japonicus): 5 (Level 5: growth control rate is above 85%)
Weeding effect in post-emergence stage, Echinochloa crusgalli (Echinochloa crusgalli): 5 (Level 5: growth control rate is above 85%)
